Test results as given in PubChem BioAssay (NCI).
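48-hour exposure; five concentrations; linearly interpolated endpoints. At the TGI there is no net growth.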

Assays:
Experiment in all cases: DTP human tumour cell line panel, 48 h
SNB-78 CNS = test system: SNB-78 CNS
TK-10 renal = test system: TK-10 renal
K-562 leukemia = test system: K-562 leukemia
OVCAR-3 ovarian = test system: OVCAR-3 ovarian
HOP-62 NSCLC = test system: HOP-62 NSCLC
SK-OV-3 ovarian = test system: SK-OV-3 ovarian
SK-MEL-2 melanoma = test system: SK-MEL-2 melanoma
A498 renal = test system: A498 renal
DMS 273 small cell lung = test system: DMS 273 small cell lung
HL-60(TB) leukemia = test system: HL-60(TB) leukemia
DMS 114 small cell lung = test system: DMS 114 small cell lung
SNB-75 CNS = test system: SNB-75 CNS
786-0 renal = test system: 786-0 renal
COLO 205 colon = test system: COLO 205 colon
SR leukemia = test system: SR leukemia
SF-539 CNS = test system: SF-539 CNS
MOLT-4 leukemia = test system: MOLT-4 leukemia
SN12C renal = test system: SN12C renal
SW-620 colon = test system: SW-620 colon
KM12 colon = test system: KM12 colon
ACHN renal = test system: ACHN renal
KM20L2 colon = test system: KM20L2 colon
M19-MEL melanoma = test system: M19-MEL melanoma
A549 NSCLC = test system: A549 NSCLC
NCI-H522 lung = test system: NCI-H522 lung
HCT-15 colon = test system: HCT-15 colon
SNB-19 CNS = test system: SNB-19 CNS
SF-268 CNS = test system: SF-268 CNS
NCI-H460 lung = test system: NCI-H460 lung
EKVX NSCLC = test system: EKVX NSCLC
OVCAR-4 ovarian = test system: OVCAR-4 ovarian
LOX IMVI melanoma = test system: LOX IMVI melanoma
SK-MEL-5 melanoma = test system: SK-MEL-5 melanoma
HCT-116 colon = test system: HCT-116 colon
MALME-3M melanoma = test system: MALME-3M melanoma
UACC-62 melanoma = test system: UACC-62 melanoma
HCC-2998 colon = test system: HCC-2998 colon
OVCAR-5 ovarian = test system: OVCAR-5 ovarian
NCI-H23 lung = test system: NCI-H23 lung
IGROV1 ovarian = test system: IGROV1 ovarian
LXFL 529 NSCLC = test system: LXFL 529 NSCLC
CCRF-CEM leukemia = test system: CCRF-CEM leukemia
U251 CNS = test system: U251 CNS
SK-MEL-28 melanoma = test system: SK-MEL-28 melanoma
OVCAR-8 ovarian = test system: OVCAR-8 ovarian
SF-295 CNS = test system: SF-295 CNS
M14 melanoma = test system: M14 melanoma
HOP-18 NSCLC = test system: HOP-18 NSCLC
DLD-1 colon = test system: DLD-1 colon
HT29 colon = test system: HT29 colon
UACC-257 melanoma = test system: UACC-257 melanoma
UO-31 renal = test system: UO-31 renal
CAKI-1 renal = test system: CAKI-1 renal
HOP-92 NSCLC = test system: HOP-92 NSCLC
RPMI-8226 leukemia = test system: RPMI-8226 leukemia
RXF 393 renal = test system: RXF 393 renal
NCI-H226 lung = test system: NCI-H226 lung
XF 498 CNS = test system: XF 498 CNS
RXF-631 renal = test system: RXF-631 renal

[N-]=[N+]=NC1(c2ccccc2)C(=O)C(Cl)=C(c2ccccc2)N(c2ccccc2)C1=O (stereo not given)
TGI (SNB-78 CNS): > 100 µM | TGI (TK-10 renal): > 100 µM | TGI (K-562 leukemia): > 100 µM | TGI (OVCAR-3 ovarian): > 100 µM | TGI (HOP-62 NSCLC): > 100 µM | TGI (SK-OV-3 ovarian): 78.6 µM | TGI (SK-MEL-2 melanoma): > 100 µM | TGI (A498 renal): > 100 µM | TGI (DMS 273 small cell lung): > 100 µM | TGI (HL-60(TB) leukemia): > 100 µM | TGI (DMS 114 small cell lung): > 100 µM | TGI (SNB-75 CNS): > 100 µM | TGI (786-0 renal): > 100 µM | TGI (COLO 205 colon): > 100 µM | TGI (SR leukemia): > 100 µM | TGI (SF-539 CNS): > 100 µM | TGI (MOLT-4 leukemia): > 100 µM | TGI (SN12C renal): > 100 µM | TGI (SW-620 colon): > 100 µM | TGI (KM12 colon): > 100 µM | TGI (ACHN renal): > 100 µM | TGI (KM20L2 colon): > 100 µM | TGI (M19-MEL melanoma): > 100 µM | TGI (A549 NSCLC): > 100 µM | TGI (NCI-H522 lung): > 100 µM | TGI (HCT-15 colon): > 100 µM | TGI (SNB-19 CNS): > 100 µM | TGI (SF-268 CNS): > 100 µM | TGI (NCI-H460 lung): > 100 µM | TGI (EKVX NSCLC): > 100 µM | TGI (OVCAR-4 ovarian): > 100 µM | TGI (LOX IMVI melanoma): > 100 µM | TGI (SK-MEL-5 melanoma): > 100 µM | TGI (HCT-116 colon): > 100 µM | TGI (MALME-3M melanoma): > 100 µM | TGI (UACC-62 melanoma): > 100 µM | TGI (HCC-2998 colon): > 100 µM | TGI (OVCAR-5 ovarian): > 100 µM | TGI (NCI-H23 lung): > 100 µM | TGI (IGROV1 ovarian): > 100 µM | TGI (LXFL 529 NSCLC): > 100 µM | TGI (CCRF-CEM leukemia): > 100 µM | TGI (U251 CNS): > 100 µM | TGI (SK-MEL-28 melanoma): > 100 µM | TGI (OVCAR-8 ovarian): > 100 µM | TGI (SF-295 CNS): > 100 µM | TGI (M14 melanoma): > 100 µM | TGI (HOP-18 NSCLC): > 100 µM | TGI (DLD-1 colon): > 100 µM | TGI (HT29 colon): > 100 µM | TGI (UACC-257 melanoma): > 100 µM | TGI (UO-31 renal): > 100 µM | TGI (CAKI-1 renal): > 100 µM | TGI (HOP-92 NSCLC): > 100 µM

O=c1c2ccccc2[nH]c2c(O)ccc(O)c12
TGI (SNB-78 CNS): 39.6 µM | TGI (TK-10 renal): 52.6 µM | TGI (K-562 leukemia): 56.3 µM | TGI (OVCAR-3 ovarian): 36.1 µM | TGI (HOP-62 NSCLC): > 100 µM | TGI (SK-OV-3 ovarian): 65.9 µM | TGI (SK-MEL-2 melanoma): > 100 µM | TGI (A498 renal): 96 µM | TGI (DMS 273 small cell lung): 30.5 µM | TGI (HL-60(TB) leukemia): 10.2 µM | TGI (DMS 114 small cell lung): 42.5 µM | TGI (786-0 renal): 38.8 µM | TGI (RPMI-8226 leukemia): 70.1 µM | TGI (SR leukemia): 39.2 µM | TGI (SF-539 CNS): 75.3 µM | TGI (MOLT-4 leukemia): 22.8 µM | TGI (SN12C renal): 28.5 µM | TGI (SW-620 colon): 36.1 µM | TGI (KM12 colon): > 100 µM | TGI (ACHN renal): 33.7 µM | TGI (KM20L2 colon): > 100 µM | TGI (M19-MEL melanoma): 63.6 µM | TGI (A549 NSCLC): > 100 µM | TGI (NCI-H522 lung): 29 µM | TGI (RXF 393 renal): 25.8 µM | TGI (HCT-15 colon): 37.2 µM | TGI (SNB-19 CNS): > 100 µM | TGI (SF-268 CNS): 76.5 µM | TGI (NCI-H460 lung): 50.9 µM | TGI (EKVX NSCLC): > 62.1 µM | TGI (OVCAR-4 ovarian): 18.5 µM | TGI (LOX IMVI melanoma): 33.9 µM | TGI (NCI-H226 lung): 66.4 µM | TGI (HCT-116 colon): 37.9 µM | TGI (MALME-3M melanoma): 59.7 µM | TGI (UACC-62 melanoma): 33.5 µM | TGI (HCC-2998 colon): > 100 µM | TGI (OVCAR-5 ovarian): > 100 µM | TGI (NCI-H23 lung): 71.5 µM | TGI (IGROV1 ovarian): 35.3 µM | TGI (LXFL 529 NSCLC): 28.5 µM | TGI (CCRF-CEM leukemia): > 88.6 µM | TGI (U251 CNS): 21.6 µM | TGI (XF 498 CNS): 30.9 µM | TGI (SK-MEL-28 melanoma): 35.2 µM | TGI (OVCAR-8 ovarian): 35.2 µM | TGI (SF-295 CNS): 38.5 µM | TGI (M14 melanoma): 30.3 µM | TGI (HT29 colon): > 84.9 µM | TGI (UACC-257 melanoma): 34.6 µM | TGI (UO-31 renal): > 79.9 µM | TGI (CAKI-1 renal): 30.4 µM | TGI (RXF-631 renal): 51.5 µM | TGI (HOP-92 NSCLC): 34.5 µM

N#COc1ccc(Oc2ccccc2)cc1
TGI (SNB-78 CNS): > 100 µM | TGI (TK-10 renal): > 100 µM | TGI (K-562 leukemia): > 100 µM | TGI (OVCAR-3 ovarian): > 100 µM | TGI (HOP-62 NSCLC): > 100 µM | TGI (SK-OV-3 ovarian): > 100 µM | TGI (SK-MEL-2 melanoma): > 100 µM | TGI (A498 renal): > 100 µM | TGI (DMS 273 small cell lung): 50.4 µM | TGI (HL-60(TB) leukemia): 75.8 µM | TGI (DMS 114 small cell lung): 89.6 µM | TGI (SNB-75 CNS): > 100 µM | TGI (786-0 renal): > 100 µM | TGI (RPMI-8226 leukemia): 83.5 µM | TGI (COLO 205 colon): > 100 µM | TGI (SR leukemia): 50 µM | TGI (SF-539 CNS): 92.4 µM | TGI (MOLT-4 leukemia): > 100 µM | TGI (SN12C renal): > 100 µM | TGI (KM12 colon): > 100 µM | TGI (ACHN renal): > 100 µM | TGI (KM20L2 colon): > 100 µM | TGI (M19-MEL melanoma): > 100 µM | TGI (A549 NSCLC): > 100 µM | TGI (NCI-H522 lung): > 100 µM | TGI (RXF 393 renal): > 100 µM | TGI (HCT-15 colon): > 100 µM | TGI (SNB-19 CNS): > 100 µM | TGI (SF-268 CNS): > 100 µM | TGI (NCI-H460 lung): > 100 µM | TGI (EKVX NSCLC): > 100 µM | TGI (OVCAR-4 ovarian): > 100 µM | TGI (LOX IMVI melanoma): 40.9 µM | TGI (NCI-H226 lung): > 100 µM | TGI (SK-MEL-5 melanoma): > 100 µM | TGI (HCT-116 colon): > 100 µM | TGI (MALME-3M melanoma): > 100 µM | TGI (UACC-62 melanoma): > 100 µM | TGI (HCC-2998 colon): > 100 µM | TGI (OVCAR-5 ovarian): > 100 µM | TGI (NCI-H23 lung): > 100 µM | TGI (IGROV1 ovarian): > 100 µM | TGI (LXFL 529 NSCLC): > 100 µM | TGI (CCRF-CEM leukemia): 60 µM | TGI (U251 CNS): > 100 µM | TGI (XF 498 CNS): > 100 µM | TGI (SK-MEL-28 melanoma): > 100 µM | TGI (OVCAR-8 ovarian): > 100 µM | TGI (SF-295 CNS): > 100 µM | TGI (M14 melanoma): > 100 µM | TGI (HOP-18 NSCLC): > 100 µM | TGI (DLD-1 colon): > 100 µM | TGI (HT29 colon): > 100 µM | TGI (UACC-257 melanoma): > 100 µM | TGI (UO-31 renal): > 100 µM | TGI (CAKI-1 renal): > 100 µM | TGI (HOP-92 NSCLC): > 100 µM
